The text below walks through data of patent publication US12036236B2, “Antimicrobial guanidinium macromolecules with bacteria targeting moieties” (International Business Machines Corporation, priority 2018, dated 2024).

One test deals with A. baumannii 4123. Briefly: Effective dose (ED50, ED95) in bacteremia infection mouse model. Type of test: in vivo. Particulars: Acinetobacter baumannii, 4123, ip; immunosuppressed mice, intraperitoneal 1.0 and 6.0 hours after infection, survival 7.0 days, BLISS method; read-out: ED50 (effective dose that cures 50% infected mice).
Test [1] has as its system clinically isolated MDR K. pneumoniae, E. coli, A. baumannii and MRSA strains. Briefly: MIC by broth microdilution against different types and strains of clinically isolated MDR bacteria. The conditions noted are these: MIC comparison. It is filed as cell-based. On the technique in general: Broth dilution looks for growth in wells or tubes with falling amounts of substance.
Protocol: To facilitate comparison, an antimicrobial guanidinium-based macromolecule without a sugar functional group (identified herein as Dp20), as well as strong antibiotics (including imipenem, vancomycin, ceftriaxone, and gentamycin), were also tested against the clinically isolated pathogens. The MDR clinical isolates were obtained from patients' blood and phlegm. All isolates were identified by routine laboratory methods and stored in 20% (v/v) glycerol at 80° C.
In accordance with the broth microdilution method, MDR microbes including one or more strains of K. pneumoniae, E. coli, A. baumannii, and MRSA were harvested in midexponential growth phase after grown overnight in Mueller-Hinton (MH) agar plates at 37° C. The antimicrobial agents were prepared in Mueller Hinton broth (MHB) at various concentrations. The bacteria suspensions were then diluted with phosphate-buffer saline (PBS), with a potential of Hydrogen (PH) of 7.4) to adjust the turbidity approximately to the Standard McFarland 0.6, which corresponds to the concentration of 1×10^8 colony-forming unit (CFU) per mL (CFU/mL, after which the bacteria suspension was further diluted by 100-fold with MHB (1×10^6 CFU/mL). Subsequently, equal volumes (100 μL) of bacterial suspension and agent solution prepared previously were mixed in each well of a 96-well plate and incubated for 18 hours at 37° C. […]

Protocol for A. baumannii 4123: In this regard, immunosuppressed mice were used for the following in vivo studies. Immunosuppression was induced by intraperitoneal injection of 200 mg/kg cyclophosphamide 4 days prior to infection. The mice were anesthetized by intraperitoneal injection of 1% pentobarbital (40 mg/kg, sigma). The mice were then infected with A. baumannii 4123 to determine the minimum lethal dose for subsequent effective dose and efficacy testing. Briefly, overnight cultures of A. baumannii 4123 were harvested and suspended in phosphate-buffered saline (PBS). Subsequently, the cyclophosphamide-pretreated mice were injected with 0.3 mL of the bacterial suspension at designated doses (e.g., 1.0×10^8, 2.5×10^8, 5×10^8, 1.0×10^9, 2.0×10^9 CFU/mL, six mice per group) via the tail vein. The minimum lethal dose, the lowest concentration sufficient to cause 100% mortality, was determined from the survival rate of mice at 48 hours post-infection by the BLISS method.
Firstly, a bacterial suspension with the minimum lethal dose (0.3 mL) was introduced to the above described cyclophosphamide-pretreated mice via the tail vein. […] The number of surviving mice in each group was recorded for 7.0 days to estimate ED50 and ED95 via the BLISS method.

A word on the ED50: it is the dose that gives a 50% effect, or the effect in half of the subjects. In the case of `C[C@@H](O)[C@H]1C(=O)N2C(C(=O)O)=C(SCCN=CN)C[C@H]12` [imipenem], in the test with A. baumannii 4123, the ED50 was found to be 6.1 mg/kg.

For the compound `CN[C@H](CC(C)C)C(=O)N[C@H]1C(=O)N[C@@H](CC(N)=O)C(=O)N[C@H]2C(=O)N[C@H]3C(=O)N[C@H](C(=O)N[C@H](C(=O)O)c4cc(O)cc(O)c4-c4cc3ccc4O)[C@H](O)c3ccc(c(Cl)c3)Oc3cc2cc(c3O[C@@H]2O[C@H](CO)[C@@H](O)[C@H](O)[C@H]2O[C@H]2C[C@](C)(N)[C@H](O)[C@H](C)O2)Oc2ccc(cc2Cl)[C@H]1O` [vancomycin], the “spectrum of efficacy (Gram-negative / Gram-positive strains)” value in test [1] is recorded as “only demonstrated efficacy Gram-positive strains”.
